Assays:
[1] = tested on: common cocklebur (Xanthium strumarium); assay: Greenhouse test of adjuvants on nicosulfuron efficacy, common cocklebur; format: in vivo; conditions: nicosulfuron 50 g/ha, without adjuvant, Trend 90 0,1% or soybean oil methylate 1%
Protocol: (§1) Example 8. The basic adjuvant A1.3 was tested on greenhouse conditions in order to verify its effect on the performance increase of nicosulfuron, herbicide representative for the category of weakly acid herbicides from the sulfonylurea class, which solubility in water is increased on high pH. The used test plants were common cocklebur (Xanthium strumarium), dicotyledonous weed, and large crabgrass (Digitaria sanguinalis), monocotyledonous weed. The common cocklebur was sown on approx. 2 cm deep, in plastic pots of 15 cm diameter, and after emergence was thinned to only 2 plants. The large crabgrass was planted in the same type of plastic pots, at 1 cm deep, and after emergence was thinned to a cluster of around 15 plants. The pots contain a synthetic grown substrate enriched with nutrients for the first week of plant growth ([…] Professional Plus, Canna International BV, Oosterhout, Netherlands), and consequently were not applied fertilizers. […] At three weeks after the treatment it was determined the fresh weight of plants on each repetition by weighting and was estimated the phytotoxicity, using a scale from 0% (without visible symptoms) to 100% (plant completely destroyed). […]

[2] = tested on: large crabgrass (Digitaria sanguinalis); assay: Greenhouse test of adjuvants on nicosulfuron efficacy, large crabgrass; format: in vivo; conditions: nicosulfuron 50 g/ha, without adjuvant, Trend 90 0,1% or soybean oil methylate 1%
Protocol: as §1

[3] = fresh weight three weeks after treatment
[4] = three weeks after treatment, scale 0-100%

With COc1cc(OC)nc(NC(=O)NS(=O)(=O)c2ncccc2C(=O)N(C)C)n1 [nicosulfuron] the “Mass reduction (% control)” value [1, 3] was 59c % control, the “Phytotoxicity (%)” value [1, 4] was 33c % and the “Mass reduction (% control)” value [2, 3] was 52c % control. The “Phytotoxicity (%)” value [2, 4] was 40c %.
